Data from patent publication US11369584B2, “Andrographolide derivatives and method of using the same for treatment or prevention of fibrosis” (Zhengzhou University, priority 2017, dated 2022).

Experiments:
[1] = tested on: SD rats with liver fibrosis induced by CCl4; assay: CCl4-induced liver fibrosis in SD rats; assay type: in vivo; settings: ELISA
Method: SD rats were fed ad libitum for 3 days, and then randomly divided into normal group and model group. Subcutaneous injection of 40% CCl4 of soybean oil to the rats of model group for the first time. Following an initial dose of 4 mL/kg, each subsequent dose was 2 mL/kg, 2 times every week. The corresponding volumes of soy oil were injected subcutaneously to the normal group. After 4 weeks of modeling, except for the normal group, other rats were weighed individually and then randomly divided into eight rats per group. The dosages of andrographolide, oxymatrine, silibinin and the compound A of the disclosure were both 20 mg/kg, and the doses of other compounds were the same molar mass as compound A, and the model group and the normal group were given an equal amount of 0.5% CMC-Na. During the 5th and 6th weeks of the experiment, modeling and administration were carried out simultaneously, furthermore, the modeling was stopped at the 7th and 8th weeks, while the administered continued to carry out. Drugs were administrated by gavage on an empty stomach in the morning every day, and were given daily for 10 days followed by 1-day break. The bedding of the rats should be replaced at the first 8 hours of the last gavage, strictly fasting with nothing but water. After 1 h of administration, an anesthetic of 3% pentobarbital sodium (2 mL/kg) was intraperitoneally injected. […] Image-Pro Plus software performed semi-quantitative analysis of fibrosis histology on the photographs of Masson stained sections. […] The expression of α-SMA (a marker of the degree of HSC activation) in liver tissue was evaluated by immunohistochemistry, and the positive expression was quantified using Image-Pro Plus, the results were shown in FIGS. 6 and 7. Data were processed and analyzed using SPSS 17.0 statistical software. Data were expressed as mean±standard deviation (X±S); There were significant differences between groups when P<0.05. The levels of LN, C-I, PC-III and C-IV in the serum of the animals were determined by ELISA using the compound H of the disclosure as a representative. Data were processed and analyzed using SPSS 17.0 statistical software. Data were expressed as mean±standard deviation (X±S); There were significant differences between groups when P<0.05. The level of IL-6 and TNF-α in the serum of the animal was determined by ELISA using the compound H of the disclosure as a representative, the results were shown in FIGS. 20 and 21. Data were processed and analyzed using SPSS 17.0 statistical software. Data were expressed as mean±standard deviation (X±S); There were significant differences between groups when P<0.05. The level of SOD and MDA in the liver tissue of the animal was determined by the compound H of the disclosure, the results were shown in FIGS. 22 and 23. […]

[2] = tested on: human proximal tubular epithelial cells HK-2; assay: TGF-β1-induced conversion of HK-2 cells to mesenchymal cells (morphological observation); assay type: cell-based; settings: TGF-β1 5 ng/mL, 48 h, test concentrations 0.08-[…]
Method: Human proximal tubular epithelial cells HK-2 (provided by the China Center for Type Culture Collection) were used to study the in vitro anti-renal fibrosis effect of the compounds of the disclosure in comparison with andrographolide (AD). HK-2 cells were cultured in DMEM-F12 medium containing 10% (V/V) fetal bovine serum, 100 μg/mL streptomycin, and 100 IU/mL penicillin respectively, and then incubated in an incubator at 5% CO2 and 37° C., humidified atmosphere. HK-2 cells in logarithmic growth phase were digested with 0.25% (w/v) trypsin and 0.02% EDTA (W/V), and diluted into 5.0×10^6/mL cell suspension with DMEM-F12 medium containing 10% (v/v) fetal bovine serum. After each 96-well plate was filled with 200 μL cell suspension, the plates were placed in an incubator for 24 h in order to generate a single layer of cells. The original medium was discarded, and the cells were washed twice with PBS, and the medium without serum was added. After 24 h of re-synchronized, 200 μL of DMEM-F12 medium containing different concentrations of the test compound and the stimulating factor TGF-β1 (5 ng/mL) was added. Each treatment was repeated in 4 wells and control group was set up. After 48 h of incubation, the cells were photographed under a microscope.

C=C1CC[C@@H]2[C@](C)(CO)[C@H](O)CC[C@@]2(C)[C@@H]1C/C=C1/C(=O)OC[C@H]1O [AD, andrographolide]
content of C-I in liver tissue [1]: significantly reduced
content of C-IV in the serum [1]: significantly reduced
Inhibitory effect ([2]; Table 1A): Medium
Optimal effective dose range ([2]; Table 1A): 0.31 to 1.25 µM
Inhibitory effect ([2]; Table 1B): Medium
Optimal effective dose range ([2]; Table 1B): 0.31 to 1.25 µM

O=C1CCC[C@@H]2[C@H]3CCC[N+]4([O-])CCC[C@@H](CN12)[C@@H]34 (some centres unmarked) [Oxymatrine, oxymatrine]
content of C-I in liver tissue [1]: significantly reduced
content of C-IV in the serum [1]: significantly reduced
